The text below walks through data of patent publication US20070078058A1, “Use of MCPP to inhibit tuber sprouting” (ACETO AGRICULTURAL CHEMICALS CORP., priority 2005, published 2007).

One data set concerns Russet Burbank potatoes. Description: Sprout inhibition of stored Russet Burbank potatoes (second trial, 46 degrees F.), thermal fogs and liquid sprays. Type of data set: in vivo, Solanum tuberosum. The source says:
(§1) The storage system was designed to duplicate a large commercial storage facility in miniature. Drums containing 150-200 pounds of potatoes were sealed and housed in a building in which temperature was maintained throughout the testing period at 54 degrees F. for the first summer trial with Norkotah potatoes and 46 degrees F. for the Russet Burbank potatoes in the second trial. During both trials the humidity was maintained at […]. Formed in each drum is an inlet in which untreated air (ventilation air) was introduced under a perforated floor to the drum. The ventilation air moves through the pile of potatoes and is exhausted from the top of the drum to the outside of the building.
(§2) This storage ventilation was shut down for a 24 hour duration during and directly after the treatment of the chemicals. Then it is maintained for the duration of the trial, with ventilation air forced through the drums at a rate of 0.5 cubic feet per minute on a three-hour on and a three-hour off schedule.
(§3) In the spray application technique the formulations were mixed with water and sprayed on the newly harvested tubers at a rate of 5 and 10 parts per million (weight of the active to weight of the potatoes) mixed in a water carrier. The mixture was applied at 1 quart per ton of potatoes. The spray was applied via a hand held spray gun propelled with compressed air as the tubers were rotating in a cement mixer drum. This insured that all surface area is coated with the active ingredient.
(§4) The custom thermal fogger's heat source was an electric hot plate set at 500 degrees F. This temperature is monitored throughout the application with a thermal couple that is inserted in a cavity just below the surface where the chemical is placed. A chamber was attached to the hot plate. A fan was mounted to the top of the chamber. The fogger was attached to the storage container with flexible tubing.
(§5) The fog was delivered to each drum through separate ports. Through the bottom port of the storage drum a perforated stinger was installed that runs the length of the drum. Flexible tubing delivered the fog air mixture from the fogger. The fog air mixture was returned to the thermal fogger through a second flexible tubing that was attached from the top of the storage drum to the bottom of the thermal fogger. The air fog mixture was re-circulated through the system for five minutes.
Russet Burbank potatoes were selected for the second trial. The Russet Burbank is noted for its long term storability and is one of the most popular cultivars used for storage as it can be used as both a fresh pack potato and also has very desirable processing qualities.
(§6) The potatoes were monitored for sprout activity on a regular basis after treatment. When early sprout activity was observed the potatoes were first evaluated. Then at approximately 30 day intervals, 60 tubers were randomly selected from each treatment. Each tuber was rated for the length of the longest sprout on each tuber. The scale used for the rating system as is follows: • 0—Not Peeping=no sprout or swelling of eye tissue evident. • 1—Peeping=swelling of eye tissue up to a sprout length of 3 mm • 2—sprout length from 3 mm to 1 cm. • 3—sprout length from 1 cm to 3 cm. • 4—sprout length from 3 cm to 5 cm. • 5—sprout length from 5 cm and longer
(§7) Results of each set of 60 tubers were recorded into 6 subsets of 10 tubers each (replicates). Each set is summarized as a percent. The data is also summarized into AVERAGE SPROUT LENGTH and PERCENT OK RE: FRESHPCK (Fresh pack).
(§8) The PERCENT OK RE: FRESHPCK is the percent of the tubers that are NOT PEEPING and PEEPING categories combined together.
(§9) The MCPP spray was a MCPP potassium salt providing 2.5 pounds active ingredient per gallon of inert ingredients (water/coformulants). […]

Another data set deals with Russet Norkotah potatoes. Description: Sprout inhibition of stored Russet Norkotah potatoes (first trial, 54 degrees F.). It is filed as in vivo, Solanum tuberosum.
Description: as §1, §2, §3
All of the treatments in the reported test on Russet Norkotah used this technique with the exception of Untreated and CIPC A (CIPC 98A) that was thermal fogged.
as §4, §5
Russet Norkotah potatoes were selected for the first trial for their short natural dormancy and aggressive sprouting.
as §6, §7, §8, §9

Data set [1] can be described thus: Concentration analysis: amounts recovered on the whole potato. Conditions: thermal fog application. The source says:
Much better results were obtained with the spray applications compared to the thermal fog applications of MCPP, believed to be due to the fact that we established a higher concentration on the tuber via spray.
For example, for spray and thermal fog application, amounts recovered on the whole potato approximately four months later were as follows: MCPP10 ppm applied via thermal fog=0.038 ppm MCPP10 ppm applied via liquid spray=6.3 ppm

The mark [2] stands for this setting: 5 ppm Fog, 132 days after harvest.
The mark [3] stands for this setting: 5 ppm Fog, 161 days after harvest.
The mark [4] stands for this setting: 5 ppm Fog, 191 days after harvest.
[5] abbreviates: 5 ppm Fog, 223 days after harvest.
The mark [6] stands for this setting: 5 ppm Fog, 252 days after harvest.
Where [7] appears, read: 5 ppm Fog, 283 days after harvest.
Where [8] appears, read: 5 ppm Spray, 132 days after harvest.
Setting [9] is: 5 ppm Spray, 161 days after harvest.
Setting [10] is: 5 ppm Spray, 191 days after harvest.
[11] abbreviates: 5 ppm Spray, 223 days after harvest.
The mark [12] stands for this setting: 5 ppm Spray, 252 days after harvest.
Where [13] appears, read: 5 ppm Spray, 283 days after harvest.
Setting [14] is: 11 ppm Fog, 132 days after harvest.
Where [15] appears, read: 11 ppm Fog, 161 days after harvest.
[16] abbreviates: 11 ppm Fog, 191 days after harvest.
The mark [17] stands for this setting: 11 ppm Fog, 223 days after harvest.
Where [18] appears, read: 11 ppm Fog, 252 days after harvest.
Setting [19] is: 11 ppm Fog, 283 days after harvest.

`O=C(O)COc1ccc(Cl)cc1Cl` [2,4 D Acid, (2,4-(dichlorophenoxy)-acetic acid, reference compound]: the “% OK For Fresh Pack Dormant + sprout up to 3 mm” value in the data set with Russet Burbank potatoes (setting [2]) came out at 100.0%; in the data set with Russet Burbank potatoes (setting [3]), 16.7%; in the data set on Russet Burbank potatoes (setting [4]) it was 0.0%; with Russet Burbank potatoes (setting [5]) it was 0.0%; with Russet Burbank potatoes (setting [6]), 0.0%; with Russet Burbank potatoes (setting [7]) it was 0.0%.

For `CCCCC(CC)COC(=O)COc1ccc(Cl)cc1Cl` (stereo not shown) [2,4 D LV, Isooctyl (2-ethylhexyl) ester of 2,4-Dichlorphenoxyacetic acid], the “% OK For Fresh Pack Dormant + sprout up to 3 mm” value came out at 96.7% in the data set with Russet Burbank potatoes (setting [8]); 30.0% in the data set on Russet Burbank potatoes (setting [9]); 8.3% in the data set on Russet Burbank potatoes (setting [10]); 0.0% with Russet Burbank potatoes (setting [11]); 0.0% in the data set on Russet Burbank potatoes (setting [12]); 0.0% with Russet Burbank potatoes (setting [13]).

Consider `O=C(O)CCCOc1ccc(Cl)cc1Cl` [2,4 DB], for which the “% OK for Fresh Pack Dormant + sprout up to 3 mm” value worked out at 81.7% with Russet Norkotah potatoes (5 ppm Spray, 53 DAH); 3.3% in the data set with Russet Norkotah potatoes (5 ppm Spray, 85 DAH); 0.0% in the data set with Russet Norkotah potatoes (5 ppm Spray, 107 DAH); 91.7% in the data set on Russet Norkotah potatoes (10 ppm Spray, 53 DAH); 11.7% in the data set with Russet Norkotah potatoes (10 ppm Spray, 85 DAH); 0.0% with Russet Norkotah potatoes (10 ppm Spray, 107 DAH).

As to `CC(C)OC(=O)Nc1cccc(Cl)c1` [CIPC 98A, isopropyl 3-chlorophenylcarbamate, reference compound], the “% OK For Fresh Pack Dormant + sprout up to 3 mm” value in the data set with Russet Burbank potatoes (setting [14]) is 100.0%; with Russet Burbank potatoes (setting [15]), 26.7%; with Russet Burbank potatoes (setting [16]), 0.0%; in the data set on Russet Burbank potatoes (setting [17]), 0.0%; in the data set on Russet Burbank potatoes (setting [18]) it was 0.0%; with Russet Burbank potatoes (setting [19]), 0.0%. Besides, the “% OK For Fresh Pack Dormant + sprout up to 3 mm” value came out at 100.0% with Russet Burbank potatoes (16.6 ppm Fog, 132 days after harvest); 26.7% with Russet Burbank potatoes (16.6 ppm Fog, 161 days after harvest); 0.0% in the data set with Russet Burbank potatoes (16.6 ppm Fog, 191 days after harvest); 0.0% with Russet Burbank potatoes (16.6 ppm Fog, 223 days after harvest); 0.0% in the data set on Russet Burbank potatoes (16.6 ppm Fog, 252 days after harvest); 0.0% with Russet Burbank potatoes (16.6 ppm Fog, 283 days after harvest). The “% OK for Fresh Pack Dormant + sprout up to 3 mm” value with Russet Norkotah potatoes (16.6 ppm Fog, 53 DAH) is recorded as 100.0%; with Russet Norkotah potatoes (16.6 ppm Fog, 85 DAH), 86.7%; in the data set with Russet Norkotah potatoes (16.6 ppm Fog, 107 DAH), 86.7%.

As to `Cc1cc(Cl)ccc1OC(C)C(=O)O` (stereo not shown) [MCPP, 2-(4-Chloro-2-methylphenoxy)propanoic acid], the “stability when exposed to heat” value in data set [1] is given as “break down rapidly when exposed to heat”. The “% OK For Fresh Pack Dormant + sprout up to 3 mm” value with Russet Burbank potatoes (setting [2]) came to 93.3%; with Russet Burbank potatoes (setting [3]), 3.3%; in the data set with Russet Burbank potatoes (setting [4]), 0.0%; with Russet Burbank potatoes (setting [5]), 0.0%; with Russet Burbank potatoes (setting [6]) it was 0.0%; with Russet Burbank potatoes (setting [7]), 0.0%. Besides, the “% OK For Fresh Pack Dormant + sprout up to 3 mm” value turned out to be 100.0% with Russet Burbank potatoes (setting [8]); 95.0% in the data set with Russet Burbank potatoes (setting [9]); 73.3% with Russet Burbank potatoes (setting [10]); 38.3% with Russet Burbank potatoes (setting [11]); 6.7% in the data set on Russet Burbank potatoes (setting [12]); 5.0% in the data set with Russet Burbank potatoes (setting [13]). For the same compound, the “% OK For Fresh Pack Dormant + sprout up to 3 mm” value with Russet Burbank potatoes (10 ppm Fog, 132 days after harvest) turned out to be 100.0%; in the data set with Russet Burbank potatoes (10 ppm Fog, 161 days after harvest), 15.0%; in the data set with Russet Burbank potatoes (10 ppm Fog, 191 days after harvest) it was 0.0%; in the data set with Russet Burbank potatoes (10 ppm Fog, 223 days after harvest), 0.0%; in the data set with Russet Burbank potatoes (10 ppm Fog, 252 days after harvest), 0.0%; in the data set on Russet Burbank potatoes (10 ppm Fog, 283 days after harvest), 0.0%. Moreover, the “% OK For Fresh Pack Dormant + sprout up to 3 mm” value in the data set on Russet Burbank potatoes (10 ppm Spray, 132 days after harvest) turned out to be 100.0%; with Russet Burbank potatoes (10 ppm Spray, 161 days after harvest), 100.0%; in the data set on Russet Burbank potatoes (10 ppm Spray, 191 days after harvest), 90.0%; in the data set on Russet Burbank potatoes (10 ppm Spray, 223 days after harvest) it was 65.0%; in the data set on Russet Burbank potatoes (10 ppm Spray, 252 days after harvest), 20.0%; in the data set on Russet Burbank potatoes (10 ppm Spray, 283 days after harvest), 10.0%. The “% OK for Fresh Pack Dormant + sprout up to 3 mm” value in the data set on Russet Norkotah potatoes (5 ppm Spray, 53 DAH) was 98.3%; in the data set with Russet Norkotah potatoes (5 ppm Spray, 85 DAH) it was 53.3%; with Russet Norkotah potatoes (5 ppm Spray, 107 DAH), 1.7%; with Russet Norkotah potatoes (10 ppm Spray, 53 DAH) it was 100.0%; in the data set on Russet Norkotah potatoes (10 ppm Spray, 85 DAH), 71.7%; with Russet Norkotah potatoes (10 ppm Spray, 107 DAH), 25.0%.

Regarding “Diisopropylnaphthalene [DIPN, reference compound]”, the “% OK For Fresh Pack Dormant + sprout up to 3 mm” value in the data set on Russet Burbank potatoes (setting [14]) worked out at 56.7%; in the data set on Russet Burbank potatoes (setting [15]), 15%; with Russet Burbank potatoes (setting [16]), 0%; in the data set on Russet Burbank potatoes (setting [17]), 0%; with Russet Burbank potatoes (setting [18]), 0%; in the data set with Russet Burbank potatoes (setting [19]), 0%.
